Several values for one entry are separate records, joined by “and”; a condition that tells them apart may be missing. Equal values may be shown once.
Key:
Type in all cases: cell-based, human
H460 cells [1] = assay: Colony-forming assay, H460; conditions: H460, IC90 doses, already after 24 h of incubation
Procedure: (§1) The ability of cells to return to proliferation after UAs treatment was measured by a colony-forming assay. After drug treatment, 250 HCT116 and H460 cells were harvested and seeded in a new 6-well plate containing fresh medium without the drug and incubated for two weeks. Untreated cells were used as controls. After two weeks, colonies were fixed with 80% ethanol, stained with crystal violet, counted, and photos were taken.

[2] = system: cleaved PARP in HCT116 cells; assay: PARP cleavage flow cytometry, HCT116; conditions: HCT116, IC90 doses, up to 120 h
Procedure: (§2) PARP cleavage was determined using Alexa Fluor 647-conjugated anti-cleaved PARP antibody (BD Biosciences, San Diego, CA, USA) according to the manufacturer’s instructions. Briefly, HCT116 and H460 cells (1 × 10^6) were trypsinized, pelleted, washed twice with ice-cold PBS and fixed in Fixation Buffer for 20 min on ice. After fixation, cells were rinsed twice with Perm Wash Buffer, stained with Alexa Fluor 647-conjugated anti-cleaved PARP antibody for 30 min, rinsed with Perm Wash Buffer and analyzed by flow cytometry with FACS Accuri C6 (BD, San Jose, CA, USA).

HCT116 cells [3] = assay: Colony-forming assay, HCT116; conditions: HCT116, IC90 doses, already after 24 h of incubation
Procedure: as §1

H460 cells [4] = assay: MTT cell growth inhibition assay, H460; conditions: Homo sapiens, NCI-H460, 72 h
Procedure: (§3) To assess cell viability, the MTT assay was used. HCT116, H460, CCD 841 CoN and MRC-5 cells (20,000/well and 50,000/well for cancer and normal cells, respectively) were seeded in 24-well plates, and the following UAs were added at concentrations up to 10 μM: C-2028, C-2041, C-2045 and C-2053. Stock solutions (10 mM) were prepared in sterile water, as well as dilutions, also in water. After 72 h, 3-(4, 5-dimethylthiazol-2-yl)-2,5-diphenyltetrazolium bromide (MTT; 800 μg/well) was added for 3 h, then the formazan crystals were dissolved in DMSO, and absorbance was read at 540 nm. Each point was conducted at least 4 times, and data are expressed relative to controls. The concentration of the drug required to inhibit cells growth by 50 (IC50), 80 (IC80) and 90% (IC90) compared to untreated control cells was determined from the curves plotting survival as a function of dose.

HCT116 cells [5] = assay: MTT cell growth inhibition assay, HCT116; conditions: Homo sapiens, HCT-116, 72 h, HCT116, 72 h
Procedure: as §3

[6] = system: active caspase-3 in H460 cells; assay: Active caspase-3 flow cytometry, H460; conditions: H460, IC90 doses, 120 h
Procedure: as §2, with “Caspase-3 activity” for “PARP cleavage”, “anti-active caspase-3” for “anti-cleaved PARP”

HCT116 cells [7] = assay: Cell cycle analysis (PI, flow cytometry), HCT116; conditions: HCT116, IC90 doses; for cells with more than 4N DNA (polyploid): during the time of incubation (time not specified), control 10%; for cells in G2/M (4N DNA): during the treatment after accumulation at 24 h (time not specified)
Procedure: After drug treatment, trypsinized and floating cells (2 × 10^6) were pooled, washed twice with ice-cold PBS and fixed in 70% (v/v) ethanol overnight at −20 °C. Cells were stained with propidium iodide (PI) (BD Biosciences, San Jose, CA, USA) and monitored by FACS Accuri C6 (BD Biosciences, San Jose, CA, USA).

HCT116 cells [8] = assay: Annexin V/PI dual staining, HCT116; conditions: HCT116, IC90 doses, 120 h
Procedure: Annexin V–FITC binding was performed with an Annexin-V Fluos Staining kit (BD Biosciences, San Jose, CA, USA) according to manufacturer’s protocol. Briefly, after drug treatment, HCT116 and H460 cells (1 × 10^6) were trypsinized, washed twice with ice-cold PBS, pelleted and resuspended in 100 µL of binding buffer containing Annexin-V–FITC and PI. Cells were incubated for 15 min at room temperature in the dark, then diluted with 400 µL of binding buffer and analyzed by flow cytometry with FACS Accuri C6 (BD, San Jose, CA, USA). Cells with low FITC and PI fluorescence were considered viable. Cells that presented high FITC fluorescence but low PI fluorescence were regarded as early apoptotic. Late apoptotic cells presented high FITC and PI fluorescence. Necrotic cells had low FITC fluorescence and high PI fluorescence.

HCT116 cells [9] = assay: Mitochondrial transmembrane potential (JC-1), HCT116; conditions: HCT116, IC90 doses, 120 h
Procedure: Changes in the mitochondrial membrane potential (ΔΨm) were analyzed by flow cytometry using 5,5′,6,6′-tetrachloro-1,1′,3,3′-tetraethylbenzimidazolyl-carbocyanine iodide, JC-1 (BD Biosciences, San Jose, CA, USA) according to manufacturer’s specification. Briefly, after treatment, HCT116 and H460 cells (1 × 10^6) were trypsinized, pelleted, resuspended in media and stained with JC-1 for 15 min at 37 °C. After staining, cells were washed twice with assay buffer and analyzed by flow cytometry with FACS Accuri C6 (BD, San Jose, CA, USA). The loss of ΔΨm was monitored based on the decrease in JC-1 red fluorescence concurrent with the increase in green fluorescence.

CCD 841 CoN cells = assay: MTT cell growth inhibition assay, CCD 841 CoN; conditions: CCD 841 CoN normal cells, 72 h
Procedure: as §3

[10] = system: active caspase-3 in HCT116 cells; assay: Active caspase-3 flow cytometry, HCT116; conditions: HCT116, IC90 doses, 120 h
Procedure: as §2, with “Caspase-3 activity” for “PARP cleavage”, “anti-active caspase-3” for “anti-cleaved PARP”

| Compound | return to proliferation (colony formation) (H460 cells [1]) | cells with cleaved PARP [2] | return to proliferation (colony formation) (HCT116 cells [3]) | IC50 (H460 cells [4]) [nM] | IC90 (H460 cells [4]) [nM] | IC50 (HCT116 cells [5]) [nM] | IC90 (HCT116 cells [5]) [nM] | cells with active caspase-3 [6] [%] | Poli (polyploid cells) (HCT116 cells [7]; 24 h) [%] | cells in G1 (HCT116 cells [7]; 24 h) [%] | cells in G2/M (HCT116 cells [7]; 24 h) [%] | cells in S (HCT116 cells [7]; 24 h) [%] | cells in Sub-G1 (HCT116 cells [7]; 24 h) [%] | Poli (polyploid cells) (HCT116 cells [7]; 72 h) [%] | cells in G1 (HCT116 cells [7]; 72 h) [%] | cells in G2/M (HCT116 cells [7]; 72 h) [%] | cells in S (HCT116 cells [7]; 72 h) [%] | cells in Sub-G1 (HCT116 cells [7]; 72 h) [%] | Poli (polyploid cells) (HCT116 cells [7]; 120 h) [%] | cells in G1 (HCT116 cells [7]; 120 h) [%] | other results |
| --- | --- | --- | --- | --- | --- | --- | --- | --- | --- | --- | --- | --- | --- | --- | --- | --- | --- | --- | --- | --- | --- |
| Cc1ccc([N+](=O)[O-])c2c(NCCCN(C)CCCNc3ccc4ncn5c6ccc(O)cc6c(=O)c3c45)c3ccccc3nc12 [Compound C-2045] | completely blocked their return to proliferation | approximately 10% | completely blocked their return to proliferation | 95 ± 38 | 399 ± 52 | 59 ± 8 | 455 ± 26 | 51.6 | 4.91 ± 2.33 | 24.61 ± 2.63 | 50.18 ± 2.39 | 16.33 ± 1.34 | 3.90 ± 0.83 | 12.20 ± 1.85 | 28.51 ± 4.31 | 34.06 ± 3.35 | 6.15 ± 0.70 | 17.38 ± 4.00 | 15.17 ± 3.74 | 22.11 ± 2.54 | cells in G2/M (HCT116 cells [7]; 120 h): 22.94 ± 2.48%; cells in S (HCT116 cells [7]; 120 h): 4.56 ± 1.19%; cells in Sub-G1 (HCT116 cells [7]; 120 h): 35.40 ± 5.84% and 35.4% and 30%; cells with more than 4N DNA (polyploid) (HCT116 cells [7]): around 15%; cells in G2/M (4N DNA) (HCT116 cells [7]): ~23%; annexin V positive cells (early and late apoptotic) (HCT116 cells [8]): ~27.8%; cells with decreased mitochondrial transmembrane potential (ΔΨm) (HCT116 cells [9]): 30.9% and 30%; IC50 (CCD 841 CoN cells): 338 ± 27 nM; IC90 (CCD 841 CoN cells; Homo sapiens): 5340 ± 1850 nM; IC50 (CCD 841 CoN cells; Homo sapiens, CCD-841CoN): ~300 nM; cells with active caspase-3 [10]: 39.3% and 40% |
| Cc1ccc([N+](=O)[O-])c2c(NCCCN(C)CCCNc3ccc4ncn5c6ccccc6c(=O)c3c45)c3ccccc3nc12 [Compound C-2053] | completely blocked their return to proliferation | least degraded | completely blocked their return to proliferation | 25 ± 6 | 184 ± 22 | 48 ± 14 | 195 ± 75 | 54.1 | 8.89 ± 1.38 | 22.34 ± 2.79 | 44.81 ± 7.10 | 19.19 ± 1.77 | 3.06 ± 1.09 | 11.02 ± 2.20 | 35.18 ± 2.63 | 36.32 ± 3.14 | 5.43 ± 1.59 | 10.45 ± 2.56 | 14.62 ± 4.62 | 30.06 ± 4.35 | cells in G2/M (HCT116 cells [7]; 120 h): 27.20 ± 4.16%; cells in S (HCT116 cells [7]; 120 h): 4.10 ± 0.56%; cells in Sub-G1 (HCT116 cells [7]; 120 h): 23.64 ± 4.86% and 23.6%; cells with more than 4N DNA (polyploid) (HCT116 cells [7]): around 15%; cells in G2/M (4N DNA) (HCT116 cells [7]): ~23%; annexin V positive cells (early and late apoptotic) (HCT116 cells [8]): 18.4%; cells with decreased mitochondrial transmembrane potential (ΔΨm) (HCT116 cells [9]): 23.5%; IC90 (CCD 841 CoN cells; Homo sapiens): 4100 ± 470 nM; IC50 (CCD 841 CoN cells; Homo sapiens, CCD-841CoN): 240 ± 40 nM; cells with active caspase-3 [10]: 20.9% |
